Values after ≈ are worked out from the molar mass of the structure shown. Like-named read-outs stand apart in the source and are kept apart here.
Assays:
[1] = test system: intra-erythrocytic and gametocyte asexual P. falciparum parasites; parameters: method as in PMID 30849984; settings: intra-erythrocytic and gametocyte stages; cited from earlier work
COX-1 = test system: COX-1; parameters: method as in doi:10.3329/bjp.v8i2.14167; settings: cited from earlier work
COX-2 = test system: COX-2; parameters: method as in doi:10.3329/bjp.v8i2.14167; settings: cited from earlier work
[2] = test system: Candida albicans ATCC 10231; assay: Serial dilution microplate MIC (fungi); format: cell-based; settings: for MIC: Candida albicans; for Selectivity index C. albicans: in brackets, Vero LC50 vs MIC
Description: (§1) The MIC value of the plant extracts and isolated compounds against one fungal and five bacterial strains (Salmonella Typhimurium ATCC 39183, Escherichia coli ATCC 25922, Pseudomonas aeruginosa ATCC 27853, Staphylococcus aureus ATCC 29213, Enterococcus faecalis ATCC 29212, and fungi culture, Candida albicans ATCC 10231) was assessed in triplicate using the serial dilution microplate method; acetone and DMSO were used as solvents. Bacterial cultures were grown in Mueller Hinton broth (Sigma Aldrich, St. Louis, MO, USA) overnight and adjusted to McFarland standard 1 (1 × 10^8 CFU/mL). Then, 100 µL of samples were transferred into the first well of a sterile 96-well microtiter plate, which contained 100 µL of water and a 1:1 serial dilution with sterilized distilled water was carried out. In each well, 100 µL of appropriately adjusted fungal or bacterial cultures were added, and the bacteria were subjected to final concentrations of 250–3.9 μg/mL for pure compounds and 2.5–0.02 mg/mL for crude extracts. Amphotericin-B and Gentamicin (Virbac, Carros, France) served as positive controls for fungi and bacteria, respectively. For sterility, water served as control, while acetone served as a negative control. The microplates were then incubated for 24 h at 37 °C. Following incubation, 40 µL of 0.2 mg/mL p-iodonitrotetrazolium violet (INT, Sigma Aldrich) dissolved in water (hot) was added to the wells before being incubated at 37 °C for another 2 h. In the case of fungi, the INT was added before incubation. The MIC was measured visually as the lowest concentration of the compounds/extracts that inhibited proliferation.

Caco-2 tumor cells = test system: Caco-2 tumor cells; parameters: method as in PMID 27357542; settings: 5 μg/mL; cited from earlier work
[3] = test system: Escherichia coli ATCC 25922; assay: Serial dilution microplate MIC; format: cell-based; settings: for MIC: Escherichia coli; for Selectivity index E. coli: in brackets, Vero LC50 vs MIC
Description: as §1

[4] = test system: Salmonella Typhimurium ATCC 39183; assay: Serial dilution microplate MIC; format: cell-based; settings: for MIC: Salmonella enterica, read-out: Minimum inhibitory concentration (MIC) S. Typhimurium; for Selectivity index S. Typhimurium: in brackets, Vero LC50 vs MIC
Description: as §1

[5] = test system: Staphylococcus aureus ATCC 29213; assay: Serial dilution microplate MIC; format: cell-based; settings: for MIC: Staphylococcus aureus; for Selectivity index S. aureus: in brackets, Vero LC50 vs MIC
Description: as §1

[6] = test system: Pseudomonas aeruginosa ATCC 27853; assay: Serial dilution microplate MIC; format: cell-based; settings: for MIC: Pseudomonas aeruginosa; for Selectivity index P. aeruginosa: in brackets, Vero LC50 vs MIC
Description: as §1

[7] = test system: Enterococcus faecalis ATCC 29212; assay: Serial dilution microplate MIC; format: cell-based; settings: for MIC: Enterococcus faecalis; for Selectivity index E. faecalis: in brackets, Vero LC50 vs MIC
Description: as §1

[8] = test system: Botrytis cinerea and Sclerotinia sclerotiorum; parameters: method as in PMID 37570772; settings: cited from earlier work
in vitro = assay: in vitro
Description: Cytotoxicity of compounds and extracts was tested against mammalian cells using the MTT assay. MCF-7 cancer cells were grown in a 5% CO2 incubator in Dulbecco’s Modified Eagle’s Medium (DMEM, Highveld Biological, Johannesburg, South Africa) supplemented with 10% fetal calf serum (Adcock-Ingram, Johannesburg, South Africa) and 1% penicillin-streptomycin (10,000 U/mL and 10 mg/mL streptomycin, Sigma Aldrich). In a 5% CO2 incubator, Vero cells were grown in a minimal essential medium (MEM, Highveld Biological, South Africa) supplemented with 5% fetal calf serum (Adcock-Ingram) and 0.1% gentamicin (Virbac). Cell suspensions were obtained from 70–80% confluent monolayer cultures and were plated in 96-well cell culture plates at a density of 1 × 10^4. Plates were incubated in a 5% CO2 incubator for 24 h at 37 °C. The cells were exposed to the extracts or compounds dissolved in the media at different concentrations for 48 h. Positive and negative controls were doxorubicin (Pfizer, New York, NYC, USA) and acetone or DMSO, respectively. After that, the wells were rinsed with phosphate-buffered saline (PBS, Sigma) and 200 µL of fresh medium was poured into the wells. Thirty microlitres (5 mg/mL) of MTT (Sigma) dissolved in PBS was added to each well, and the plates were incubated at 37 °C for 4 h. The medium from the wells was removed, rinsed, and 50 µL of 100% DMSO was added to the wells. At a wavelength of 570 nm, absorbance was measured using a microplate reader (BioTek Synergy, Beijing, China). Each sample concentration was tested in quadruplicate in two repeats (n = 8), and the concentration causing 50% inhibition of cell viability (LC50) was calculated. Selectivity index (SI) values for the extracts/compounds were obtained by dividing cytotoxicity LC50 values of normal (Vero) cells by those of the cancer cells.

[9] = test system: Leishmania braziliensis amastigotes; parameters: method as in PMID 32664596; settings: cited from earlier work
HEK295 = test system: HEK295; parameters: method as in PMID 27357542; settings: cited from earlier work
MCF-7 tumor cells = test system: MCF-7 tumor cells; parameters: method as in PMID 27357542; settings: 1 µg/mL; cited from earlier work
Plasmodium falciparum = test system: Plasmodium falciparum; parameters: method as in PMID 32664596; settings: cited from earlier work
[10] = test system: one fungal and five bacterial strains; assay: Serial dilution microplate MIC, whole panel; format: cell-based; settings: isolated compounds, highest concentration 250 µg/mL
Description: as §1

P. aeruginosa = test system: P. aeruginosa; parameters: method as in PMID 23480526; settings: cited from earlier work
E. coli = test system: E. coli; parameters: method as in PMID 23480526; settings: cited from earlier work
L. monocytogenes = test system: L. monocytogenes; parameters: method as in PMID 23480526; settings: cited from earlier work
S. aureus = test system: S. aureus; parameters: method as in PMID 23480526; settings: cited from earlier work
[11] = parameters: method as in PMID 22693528; settings: cited from earlier work
[12] = ATCC10231, isolated compounds, Table 2, read-out: Minimum inhibitory concentration (MIC) C. albicans
[13] = ATCC25922, isolated compounds, Table 2, read-out: Minimum inhibitory concentration (MIC) E. coli
[14] = ATCC29213, isolated compounds, Table 2, read-out: Minimum inhibitory concentration (MIC) S. aureus
[15] = ATCC27853, isolated compounds, Table 2, read-out: Minimum inhibitory concentration (MIC) P. aeruginosa
[16] = ATCC29212, isolated compounds, Table 2, read-out: Minimum inhibitory concentration (MIC) E. faecalis

SMILES: C=C1C(=O)O[C@H]2C1[C@@H](OC(C)=O)CC(=C)[C@]1(O)C=C[C@@](C)(O)[C@H]21 (stereo partly drawn) [1α, 4α-dihydroxybishopsolicepolide]
- IC50 [1]: ~10 µM

SMILES: CC(=O)O[C@H]1CC[C@]2(C)[C@H]3CC[C@]4(C)C(=CC[C@@]5(C)CCC(C)(C)C[C@H]54)[C@]3(C)CC[C@H]2C1(C)C [3β-Taraxerol acetate, 3β-taraxerol acetate]
- IC50 (COX-1): 116 µM
- IC50 (COX-2): 94.7 µM

SMILES: C[C@@H]1[C@H](O)[C@@H](C)/C=C/C=C/C=C/C=C/C=C/C=C/C=C/[C@H](O[C@@H]2O[C@H](C)[C@@H](O)[C@H](N)[C@@H]2O)C[C@@H]2O[C@](O)(C[C@@H](O)C[C@@H](O)[C@H](O)CC[C@@H](O)C[C@@H](O)CC(=O)O[C@H]1C)C[C@H](O)[C@H]2C(=O)O [Amphotericin-B, reference compound]
- MIC ([2]; ATCC10231, crude extracts, Table 1, read-out: Minimum inhibitory concentration (MIC) C. albicans): 20 mg/L (≈ 21.6 µM)
- MIC [2, 12]: 3.9 mg/L (≈ 4.22 µM)

SMILES: CCCCCCCCCCCCOC(=O)/C=C/c1ccc(O)cc1 [Dodecyl-p-coumarate, dodecyl-p-coumarate]
- Reduction of viability of Caco-2 tumor cells (Caco-2 tumor cells): ≥ 15%
- MIC ([3]; ATCC25922, read-out: Minimum inhibitory concentration (MIC) E. coli): > 250 mg/L
- Selectivity index E. coli ([3]; Table 2): < 0.8
- MIC ([4]; isolated compounds, Table 2): > 250 mg/L
- Selectivity index S. Typhimurium ([4]; Table 2): < 0.8
- MIC ([5]; ATCC29213, read-out: Minimum inhibitory concentration (MIC) S. aureus): > 250 mg/L
- Selectivity index S. aureus ([5]; Table 2): < 0.8
- MIC ([6]; ATCC27853, read-out: Minimum inhibitory concentration (MIC) P. aeruginosa): > 250 mg/L
- Selectivity index P. aeruginosa ([6]; Table 2): < 0.8
- MIC ([7]; ATCC29212, read-out: Minimum inhibitory concentration (MIC) E. faecalis): 62.5 mg/L (≈ 188 µM)
- Selectivity index E. faecalis ([7]; Table 2): > 3.2
- Mycelium growth of Botrytis cinerea and Sclerotinia sclerotiorum [8]: inhibition of mycelium growth
- CC50 at 48 h (in vitro): > 200 mg/L
- MIC ([2]; ATCC10231, read-out: Minimum inhibitory concentration (MIC) C. albicans): 250 mg/L (≈ 752 µM)
- Selectivity index C. albicans ([2]; Table 2): > 0.8
- EC50 Leishmania braziliensis amastigotes [9]: 16.34 ± 0.49 mg/L (≈ 49.1 µM)
- Toxic effect on HEK295 (HEK295): minimal toxic effect
- Reduction of viability of MCF-7 tumor cells (MCF-7 tumor cells): at least 23%
- EC50 Plasmodium falciparum (Plasmodium falciparum): 81.19 ± 8.54 mg/L (≈ 244 µM)

SMILES: COc1cc(/C=C/C(=O)O)ccc1O [Ferulic acid, ferulic acid]
- MIC ([10]; all tested strains, read-out: MIC against all tested microorganisms): ≥ 250 mg/L
- MIC against all tested microorganisms [10]: no efficacy
- MIC P. aeruginosa (P. aeruginosa): 100 mg/L (≈ 515 µM)
- MIC [3, 13]: > 250 mg/L
- Selectivity index E. coli ([3]; Table 2): < 0.8
- MIC ([4]; isolated compounds, Table 2): > 250 mg/L
- Selectivity index S. Typhimurium ([4]; Table 2): < 0.8
- MIC [5, 14]: 250 mg/L (≈ 1290 µM)
- Selectivity index S. aureus ([5]; Table 2): > 0.8
- MIC [6, 15]: > 250 mg/L
- Selectivity index P. aeruginosa ([6]; Table 2): < 0.8
- MIC [7, 16]: > 250 mg/L
- Selectivity index E. faecalis ([7]; Table 2): < 0.8
- CC50 at 48 h (in vitro): > 200 mg/L
- MIC E. coli (E. coli): 100 mg/L (≈ 515 µM)
- MIC [2, 12]: 250 mg/L (≈ 1290 µM)
- Selectivity index C. albicans ([2]; Table 2): > 0.8
- MIC L. monocytogenes (L. monocytogenes): 1250 mg/L (≈ 6440 µM)
- MIC S. aureus (S. aureus): 1100 mg/L (≈ 5660 µM)

SMILES: CNC(C)C1CCC(N)C(OC2C(N)CC(N)C(OC3OCC(C)(O)C(NC)C3O)C2O)O1 (stereo not shown) [Gentamicin, reference compound]
- MIC ([3]; ATCC25922, crude extracts, Table 1, read-out: Minimum inhibitory concentration (MIC) E. coli): 20 mg/L (≈ 41.9 µM)
- MIC [3, 13]: 3.9 mg/L (≈ 8.17 µM)
- MIC ([4]; crude extracts, Table 1): 20 mg/L (≈ 41.9 µM)
- MIC ([4]; isolated compounds, Table 2): 3.9 mg/L (≈ 8.17 µM)
- MIC ([5]; ATCC29213, crude extracts, Table 1, read-out: Minimum inhibitory concentration (MIC) S. aureus): 20 mg/L (≈ 41.9 µM)
- MIC [5, 14]: 3.9 mg/L (≈ 8.17 µM)
- MIC ([6]; ATCC27853, crude extracts, Table 1, read-out: Minimum inhibitory concentration (MIC) P. aeruginosa): 20 mg/L (≈ 41.9 µM)
- MIC [6, 15]: 3.9 mg/L (≈ 8.17 µM)
- MIC ([7]; ATCC29212, crude extracts, Table 1, read-out: Minimum inhibitory concentration (MIC) E. faecalis): 20 mg/L (≈ 41.9 µM)
- MIC [7, 16]: 3.9 mg/L (≈ 8.17 µM)

SMILES: C=C1C(=O)O[C@H]2[C@H]1[C@@H](OC(C)=O)C[C@@](C)(O)[C@@]13O[C@@H]1[C@@H]1O[C@]1(C)[C@H]23 [Yomogiartemin]
- IC50 [1]: ~10 µM

SMILES: O=C1O[C@H]([C@@H](O)CO)C(O)=C1O [vitamin C, reference compound]
- IC50 DPPH radical [11]: 1.22 mg/L (≈ 6.93 µM)

Reference: PMC10574767, “Extractives from Artemisia afra with Anti-Bacterial and Anti-Fungal Properties” (Plants, 2023)
